Test results taken from patent US9593146B2, “CD44v6-derived peptides for treating metastasizing cancer” (AMCURE GMBH, priority 2012, dated 2017).

Experiments:
hVEGF = assay: Human VEGF in cell culture supernatant of L3.6pl cells; assay type: cell-based; settings: 200 ng/ml peptide in the culture medium, 5 days
Method: Determination of human HGF and VEGF levels in cell culture medium of L3.6pl cells were performed using the Quantikine Human HGF Immunoassay and Quantikine Human VEGF Immunoassay from Roche (Mannheim, GER) and R&D Systems (Wiesbaden, Germany). For this purpose 3×10^6 cells were cultured for 5 days in a 15 cm plate in the presence of the respective peptides as indicated. The supernatant (20 ml) was centrifuged (1200 rpm) and the assay was performed according to manufacturer's instructions.

BSp73ASs6 cells = assay: Apoptosis in established lung metastases (cleaved Caspase-3, cleaved Caspase-8), BSp73ASs6 rat model; assay type: in vivo; settings: cleaved caspase-8 staining
Method: 7 μm thick paraffin sections were deparaffinized and rehydrated. For P-Met staining antigen unmasking was achieved by boiling the slides in 1 mM EDTA pH 8.0 followed by incubation for 15 minutes at a sub-boiling temperature, for CD31 staining the sections were treated with Proteinase K (8 μg/ml) for 10 min at 37° C. For immunofluorescence staining of P-Met, unspecific binding was blocked with 5% goat serum (DAKO, Glostrup, Denmark) (diluted in 1×PBS/0.3% Triton X-100) for 60 minutes. In the case of immunohistochemistry, endogenous peroxidases were at first blocked with 3% H2O2 in PBS followed by incubation with biotin blocking system (Dako, Glostrup, Denmark) and then unspecific binding was inhibited by incubation with 5% FCS in PBS. The sections were incubated with the P-Met antibody (D26, dilution 1:50 in 1×PBS/1% BSA/0.3% Triton X-100), Met antibody (C-28, dilution 1:50), GFP antibody (sc-101525, dilution 1:50) or CD31 antibody (5 μg/ml) over night or VFF18 (5 μg/ml) o/n at 4° C. After washing in PBS the sections were incubated with Alexa Fluor R 546 goat anti-rabbit (in case of immunofluorescence P-Met and Met staining, dilution 1:500) or a biotinylated secondary antibody (for immunohistochemical stainings rabbit anti-rat antibody for VFF18 and CD31, goat anti-rabbit for P-Met, cleaved Caspase-3 and cleaved Caspase-8 and rabbit anti-mouse for GFP, dilution 1:500) for 45 minutes. For DAB (3,3′-diaminobenzidine) staining the sections were treated with a streptavidin-peroxidase conjugate (Dako, Glostrup, Denmark) and developed with DAB substrate system (3,3′-diaminobenzidine; Biozol, Eching, Germany). For immunofluorescence DAPI was used for nuclear staining.
One hypothesis for the disappearance of metastases is that the peptides induce apoptosis of CD44v6-expressing metastatic cells in the secondary organs. In order to test this hypothesis, the experiment described above using the BSp73ASs6 cells was repeated. The cells were injected subcutaneously in syngeneic rats and the tumor was allowed to develop for three weeks. After that time the animals were separated in two groups of 10 animals that were injected either with the specific rat CD44v6 peptide or with the control peptide (mouse) every second day. One day following each injection of the peptide, the lungs of one animal were removed and apoptosis was measured using an antibody that detects the cleaved form of Caspase 3. […] Twelve days after injection of the CD44v6 peptide, less apoptosis was observed. […] From these experiments, it is concluded that the CD44v6 peptide induces apoptosis of metastatic cells.

Met = assay: HGF induced activation of Met and Erk in endothelial cells; assay type: cell-based, human; settings: HUVEC, HAOEC and HCMEC; added before induction with HGF
Method: FIG. 12: CD44v6 is required for activation of Met and downstream signaling in several ECs. Different ECs (HUVEC, HAOEC and HCMEC) were serum starved and incubated with several reagents (aCD44v6, v6 14mer and the controls IgG and ctrl pep). The growth factor HGF was added and the cells were lysed. The proteins in the cell lysates were separated by SDS-PAGE and subjected to Western blot analysis. Activation of Met and of its downstream target Erk was detected by means of phospho-specific antibodies that detect phosphorylated forms of Met and Erk. In order to check equal loading of the different samples the membrane was incubated with stripping solution and reprobed with antibodies recognising all Met and Erk proteins. The numbers indicate the fold induction as calculated with the computer programme ImageJ.
When these ECs were treated with HGF, the receptor tyrosine kinase Met was phosphorylated and signaling to Erk—a downstream target of Met—was promoted (FIG. 12). The contribution of CD44v6 to Met signaling in these cells was analysed using different tools.

ErbB receptors = assay: EGF / TGFα induced Erk phosphorylation in MCF7; assay type: cell-based, human; settings: 100 ng/ml peptide
HUVECs and HAOECs = assay: Scratch closure assay, EC migration; assay type: cell-based, human; settings: 24 hours
Method: FIG. 18: CD44v6 is required for EC migration. HUVECs and HAOECs were grown to confluence and a wound was made into the cell monolayer with a sterile pipette tip. After washing the cells were incubated with the antibody against CD44v6, the CD44v6 peptide (human v614mer) or the control peptide as indicated. The ligands HGF, VEGF-A165 or VEGF-A121 were added and migration of the ECs was analysed after 24 hours. The numbers indicate the percentage of free area in the scratch area quantified by the computer program ImageJ.
In this assay the requirement for CD44v6 for cell migration was tested. In a scratch closure assay migration of either vein or artery ECs was tested. These cells were grown to confluence and a scratch was made into the confluent monolayer using a sterile pipette-tip. The cells lining the scratch border started to migrate into this empty space in order to close the gap. In presence of either HGF, VEGF-A165, or VEGF-A121 the cells migrated faster than in absence of the ligands and the scratch was closed within one day.

HUVEC = assay: Angiogenic response of HUVECs to angiogenic Langerhans islets; assay type: cell-based, human; settings: HUVEC/collagen co-culture with islets, 5 to 7 days
Method: FIG. 20: The response of HUVECs to a mixture of angiogenic factors produced by angiogenic Langerhans islets can be reduced by CD44v6 specific inhibitors. HUVEC cells were mixed with CD44v6 antibody, CD44v6 peptide or control peptide and then suspended in a collagen gel. Hyperplastic angiogenic Langerhans islets isolated from the pancreas of 8-9 week old RIP1Tag2 mice were placed on top of the HUVEC/collagen mixture and overlaid with medium. Every third day new antibody or peptide was added and pictures were taken after 5 to 7 days. The number of islets that induced an angiogenic response of the ECs is given as percentage of all analysed islets. For quantification 60 islets per condition were analysed. Both the CD44v6 antibody and the CD44v6 peptide (human v6 14mer) reduced the angiogenic response, and the reduction obtained with the antibody is significant (p<0.05).
Langerhans islets are able to stimulate an angiogenic response when co-cultured with HUVEC cells in a collagen matrix. Such angiogenic hyperplastic islets of Langerhans were isolated by collagenase perfusion. They produce a mixture of angiogenic factors and thereby attract the ECs to get organised in capillary like structures. […] In agreement with published data around 60% of islets stimulated an angiogenic response in the control experiment (FIG. 20).

KEQWFGNRWHEGYR [human 14mer, human CD44v6 14mer peptide]
hVEGF secretion by L3.6pl cells (hVEGF): can be blocked
activation of caspase-8 in lung metastases (BSp73ASs6 cells): A kinetic of activation of caspase-8 similar to the one obtained for caspase-3
activation of Met and of its downstream target Erk (Met): able to prevent activation of Met and of its downstream target Erk
Erk phosphorylation upon EGF treatment (ErbB receptors; 20 ng/ml EGF (FIG. 16)): blocking of Erk phosphorylation upon EGF treatment
Erk phosphorylation upon TGFα induction (ErbB receptors; 20 ng/ml TGFα (FIG. 16)): not upon TGFα induction
EC migration induced by HGF, VEGF-A165 or VEGF-A121 (HUVECs and HAOECs): reduced to basal levels
angiogenic response of the ECs (HUVEC): reduced
